Results taken from patent publication US9771369B2, “Compounds and methods for kinase modulation, and indications therefor” (Plexxikon Inc., priority 2014, dated 2017).

What follows are compounds tested against c-kit mutant D816V (Homo sapiens (Human), UniProt P10721, D816V/DEL694-753) (assay: c-Kit mutant D816V biochemical assay (AlphaScreen kinase activity)).
How it was run: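 AlphaScreen with streptavidin donor and PY30 acceptor beads read phosphotyrosine on biotin-(E4Y)10 substrate (30 nM). Enzyme: E. coli-expressed N-His c-Kit D816V, residues 551-934 lacking kinase insert 694-753. Reaction 30 min at room temperature, 10 μM ATP, 5% DMSO; IC50 fitted over 8 three-fold dilutions.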

Sequence of c-kit mutant D816V (P10721 other isoform, or with tags, fused parts or gaps D816V/del 694-753): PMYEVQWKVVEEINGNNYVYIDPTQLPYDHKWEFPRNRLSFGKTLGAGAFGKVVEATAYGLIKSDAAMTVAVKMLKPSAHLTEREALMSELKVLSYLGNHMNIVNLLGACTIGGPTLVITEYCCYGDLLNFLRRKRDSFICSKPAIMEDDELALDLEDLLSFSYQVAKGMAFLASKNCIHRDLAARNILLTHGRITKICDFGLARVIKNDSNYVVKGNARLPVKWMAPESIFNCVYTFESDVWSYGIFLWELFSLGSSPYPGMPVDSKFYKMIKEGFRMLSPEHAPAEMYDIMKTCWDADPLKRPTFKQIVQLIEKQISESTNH

Row | SMILES | IC50 [µM]
1 | Cc1nc(C2(C)CCN(c3ncnc4[nH]c(-c5ccc(NS(C)(=O)=O)cc5)cc34)CC2)[nH]c1-c1ccc(C(F)F)cc1 [P-3252, N-[4-[4-[4-[5-[4-(difluoromethyl)phenyl]-4-methyl-1H-imidazol-2-yl]-4-methyl-1-piperidyl]-7H-pyrrolo[2,3-d]pyrimidin-6-yl]phenyl]methanesulfonamide] | 0.0001 to 1
2 | Cc1nc(C2(C)CCN(c3ncnc4[nH]c(-c5ccc(C(N)=O)cc5)cc34)CC2)[nH]c1-c1ccc(OC(F)F)cc1 [P-3253, 4-[4-[4-[5-[4-(difluoromethoxy)phenyl]-4-methyl-1H-imidazol-2-yl]-4-methyl-1-piperidyl]-7H-pyrrolo[2,3-d]pyrimidin-6-yl]benzamide] | 0.0001 to 1
3 | Cc1nc(C2(C)CCN(c3ncnc4[nH]c(-c5ccc(NS(C)(=O)=O)cc5)cc34)CC2)[nH]c1-c1ccc(OC(F)F)cc1 [P-3254, N-[4-[4-[4-[5-[4-(difluoromethoxy)phenyl]-4-methyl-1H-imidazol-2-yl]-4-methyl-1-piperidyl]-7H-pyrrolo[2,3-d]pyrimidin-6-yl]phenyl]methanesulfonamide] | 0.0001 to 1
4 | Cc1nc(C2(C)CCN(c3ncnc4[nH]c(-c5ccc(C#N)nc5)cc34)CC2)[nH]c1-c1cccc(OC(F)F)c1 [P-3255, 5-[4-[4-[5-[3-(difluoromethoxy)phenyl]-4-methyl-1H-imidazol-2-yl]-4-methyl-1-piperidyl]-7H-pyrrolo[2,3-d]pyrimidin-6-yl]pyridine-2-carbonitrile] | 0.0001 to 1
5 | COc1cccc(-c2[nH]c(C3(C)CCN(c4ncnc5[nH]c(-c6ccc(C#N)nc6)cc45)CC3)nc2C)c1 [P-3256, 5-[4-[4-[5-(3-methoxyphenyl)-4-methyl-1H-imidazol-2-yl]-4-methyl-1-piperidyl]-7H-pyrrolo[2,3-d]pyrimidin-6-yl]pyridine-2-carbonitrile] | 0.0001 to 1
